Laboratory results from patent US4374841A, “Pyridoxine derivatives, and use in therapeutics” (S. A. Labaz N.V., priority 1980, dated 1983).
Where a name gives a salt, the structure may show the parent alone. Read-outs that look alike come from different tables or passages of the source.

Key:
α-receptors = assay: Antiadrenergic properties: anti-α effect (reduction of epinephrine-increased blood-pressure); format: in vivo, dog; settings: intravenous; for Anti-α effect: anaesthetized atropinized dog, epinephrine
Description: (§1) The purpose of this test was to determine the capacity of the compounds under study to reduce epinephrine-increased blood-pressure (anti-α effect) and epinephrine-accelerated heart-rate (anti-β effect) in the dog previously anaesthetized with pentobarbital (30 mg/kg) and atropinized (1 mg/kg).
After that, the dose of epinephrine so determined was administered followed by a dose, by intravenous route, of the compound to be studied. The percentage of reduction of hypertension produced by the compound under study in comparison with the hypertension previously obtained (about 100 mm.Hg) was then registered.
(§2) In both cases, the results were expressed as follows: […]
(§3) + for a <50%-reduction of the increase in pressure or cardiac frequency
(§4) ++ for a ≥50-reduction of the increase in pressure or cardiac frequency
(§5) +++ for the almost complete supression of the increase in pressure or cardiac frequency.

β-receptors = assay: Antiadrenergic properties: anti-β effect (reduction of epinephrine-accelerated heart-rate); format: in vivo; settings: intravenous, anaesthetized atropinized dog
Description: as §1
The percentage of reduction of the epinephrine-induced acceleration of heart-rate obtained by means of the compounds under study in comparison with the tachycardia previously measured (about 70 beats) was then registered.
as §2, §3, §4, §5

anaesthetized dog [1] = assay: Reserpine-like properties (cardiac frequency and contractility of the myocardium); format: in vivo; settings: Canis lupus familiaris, 1 mg/kg, intravenous, anaesthetized dog
Excerpt: C. Reserpine-like properties
the increase in cardiac frequency
the increase of (dP/dt) at its maximum, i.e. the increase of the maximum of the derivative of the left ventricular pressure in relation to time.
This derivative thus represented an index of contractility.

mice = assay: Central depressant properties (passage of mice through a light ray); format: in vivo; settings: intragastric, 30 minutes after administration, recorded over 15 minutes, dose with depressant action in 50% of the animals; for ED50: Mus musculus, po, 0.5 h, read-out: AD50 (the source's name)
Description: D. Central depressant properties
Thirty minutes after the intragastric administration of a dose of the compound to be studied, batches of mice were placed in a container through which a ray of light was projected. By means of a photoelectric cell, a record was made of the number of animals passing through the light ray over a period of 15 minutes. The same test was performed with control animals.
The AD50 was then calculated i.e. the dose of the compound under study which provoked a depressant action in 50% of the animals.

anaesthetized dog [2] = assay: Hypotension in the anaesthetized dog; format: in vivo; settings: intravenous
Description: (a) Hypotension in the anaesthetized dog
The hypotensive effect was determined for at least one hour after the intravenous injection of a dose of the compound under study in the dog previously anaesthetized with pentobarbital (30 mg/kg) and atropinized (1 mg/kg).
Arterial pression was registered on a femoral artery.
The results were expressed as follows: […]
++ for a lasting reduction of about 30% in arterial pressure
+ for a short-lived reduction of about 20% in arterial pressure.

[3] = (dP/dt) maximum, read-out: increase in the contractility of the myocardium
[4] = read-out: increase in cardiac frequency

Q: How did the Anti-α effect (α-receptors; 10 mg/kg) turn out when `COc1ccccc1OCCNCC(O)COc1c(C)ncc(CO)c1CO` (stereo not drawn) [Compound U, 4,5-dihydroxymethyl-3-[2-hydroxy-3-(2-methoxy-phenoxyethylamino)-propoxy]-2-methyl-pyridine] was run?
A: Its Anti-α effect is “+++”.

Q: What about the “prolonged α-antiadrenergic activity at a dose as low as” value (α-receptors; lowest active dose, dog, dihydrochloride) of the same compound?
A: Its value is 0.5 mg/kg.

Q: What about the Anti-β effect (β-receptors; 10 mg/kg) of the same compound?
A: Its Anti-β effect is “++ (for a ≥50-reduction of the increase in pressure or cardiac frequency)”.

Q: `Cc1ncc(CO)c(CO)c1OCC(O)CNCCOc1ccccc1C(C)C` (stereo not drawn) [P, 4,5-Dihydroxymethyl-3-[2-hydroxy-3-(2-isopropyl-phenoxyethylamino)-propoxy]-2-methyl-pyridine] was tested. Which change in vivo at 1 mg/kg (anaesthetized dog [1]; [3]) did it give?
A: The change in vivo at 1 mg/kg was 10 to 30%.

Q: And the change in vivo at 1 mg/kg (anaesthetized dog [1]; [4])?
A: Its change in vivo at 1 mg/kg is 10 to 30%.

Q: And the Anti-α effect (α-receptors; 2 mg/kg)?
A: The Anti-α effect was “+++”.

Q: And the ED50 (mice)?
A: The ED50 was 42 mg/kg.

Q: And the Anti-β effect (β-receptors; 2 mg/kg)?
A: The Anti-β effect was “++ (for a ≥50-reduction of the increase in pressure or cardiac frequency)”.

Q: How did the Anti-α effect (α-receptors; 10 mg/kg) turn out when `CNC(=O)OCc1cnc(C)c(OCC(O)CNCCOc2ccccc2C)c1COC(=O)NC` (stereo not drawn) [Q, 4,5-Di-(N-methylcarbamoyloxymethyl)-3-[2-hydroxy-3-(2-methyl-phenoxyethylamino)-propoxy]-2-methyl-pyridine] was run?
A: Its Anti-α effect is “+++”.

Q: And the Anti-β effect (β-receptors; 10 mg/kg)?
A: Its Anti-β effect is 0.

Q: With `COc1ccc(CCNCC(O)COc2c(C)ncc(CO)c2CO)cc1OC.O=C(O)C(=O)O.O=C(O)C(=O)O` (stereo not drawn) [X, 4,5-Dihydroxymethyl-3-[3-(3,4-dimethoxy-phenethylamino)-2-hydroxy-propoxy]-2-methyl-pyridine dioxalate] as the compound, how does the “Decrease in arterial pressure” value (anaesthetized dog [2]; 10 mg/kg) read?
A: The value was “+ (for a short-lived reduction of about 20% in arterial pressure)”.

Q: How did the Anti-α effect (α-receptors; 10 mg/kg) turn out when “4,5-Dihydroxymethyl-3-[3-(2-ethyl-phenoxyethylamino)-2-hydroxy-propoxy]-2-methyl-pyridine [F]” was run?
A: Its Anti-α effect is “+++”.

Q: What about the “Decrease in arterial pressure” value (anaesthetized dog [2]; 10 mg/kg) of the same compound?
A: The value was “+ (for a short-lived reduction of about 20% in arterial pressure)”.

Q: What about the Anti-β effect (β-receptors; 10 mg/kg) of the same compound?
A: The Anti-β effect was “++ (for a ≥50-reduction of the increase in pressure or cardiac frequency)”.

Q: How did the Anti-α effect (α-receptors; 10 mg/kg) turn out when “4,5-Dihydroxymethyl-3-{2-hydroxy-3-[(3-phenyl-1-methyl-1-propyl)-amino]-propoxy}-2-methyl-pyridine” was run?
A: Its Anti-α effect is “+++”.

Q: What about the Anti-β effect (β-receptors; 10 mg/kg) of the same compound?
A: The Anti-β effect was “++ (for a ≥50-reduction of the increase in pressure or cardiac frequency)”.

Q: `Cc1ccc(OCCCNCC(O)COc2c(C)ncc(CO)c2CO)cc1C` (stereo not drawn) [T, 4,5-Dihydroxymethyl-3-[2-hydroxy-3-(3,4-dimethyl-phenoxypropylamino)-propoxy]-2-methyl-pyridine] was tested. Which Anti-α effect (α-receptors; 10 mg/kg) did it give?
A: Its Anti-α effect is “++ (for a ≥50-reduction of the increase in pressure or cardiac frequency)”.

Q: And the Anti-β effect (β-receptors; 10 mg/kg)?
A: Its Anti-β effect is “++ (for a ≥50-reduction of the increase in pressure or cardiac frequency)”.

Q: How did the Anti-α effect (α-receptors; 10 mg/kg) turn out when “4,5-Dihydroxymethyl-3-[2-hydroxy-3-(3,5-dimethyl-phenoxyethylamino)-propoxy]-2-methyl-pyridine” was run?
A: Its Anti-α effect is “++ (for a ≥50-reduction of the increase in pressure or cardiac frequency)”.

Q: And the Anti-β effect (β-receptors; 10 mg/kg)?
A: The Anti-β effect was “++ (for a ≥50-reduction of the increase in pressure or cardiac frequency)”.

Q: How did the Anti-α effect (α-receptors; 3.5 mg/kg) turn out when “4,5-Dihydroxymethyl-3-[2-hydroxy-3-(2-phenyl-1-methyl-ethylamino)-propoxy]- 2-methyl-pyridine [B]” was run?
A: The Anti-α effect was “+++”.

Q: What about the “Decrease in arterial pressure” value (anaesthetized dog [2]; 3.5 mg/kg) of the same compound?
A: The value was “+ (for a short-lived reduction of about 20% in arterial pressure)”.

Q: And the Anti-β effect (β-receptors; 3.5 mg/kg)?
A: The Anti-β effect was “+++”.

Q: Which change in vivo at 1 mg/kg (anaesthetized dog [1]; [3]) does the source give for `Cc1ncc(CO)c(CO)c1OCC(O)CNCCc1ccccc1` (stereo not drawn) [Z, 4,5-Dihydroxymethyl-3-(2-hydroxy-3-phenylethyl-amino-propoxy)-2-methyl-pyridine oxalate] here?
A: The change in vivo at 1 mg/kg was 10 to 30%.

Q: What about the change in vivo at 1 mg/kg (anaesthetized dog [1]; [4]) of the same compound?
A: Its change in vivo at 1 mg/kg is 10 to 30%.

Q: What about the ED50 (mice) of the same compound?
A: The ED50 was 33 mg/kg.

Q: How did the change in vivo at 1 mg/kg (anaesthetized dog [1]; [3]) turn out when `Cc1ccc(OCCNCC(O)COc2c(C)ncc(CO)c2CO)cc1` (stereo not drawn) [Compound M, 4,5-Dihydroxymethyl-3-[2-hydroxy-3-(4-methyl-phenoxyethylamino)-propoxy]-2-methyl-pyridine] was run?
A: Its change in vivo at 1 mg/kg is 10 to 30%.

Q: And the change in vivo at 1 mg/kg (anaesthetized dog [1]; [4])?
A: The change in vivo at 1 mg/kg was 10 to 30%.

Q: And the Anti-α effect (α-receptors; 10 mg/kg)?
A: Its Anti-α effect is “++ (for a ≥50-reduction of the increase in pressure or cardiac frequency)”.

Q: And the Anti-β effect (β-receptors; 10 mg/kg)?
A: The Anti-β effect was 0.

Q: “4,5-Dihydroxymethyl-3-[2-hydroxy-3-(2-methoxy-phenoxyethylamino)-propoxy]-2-methyl-pyridine” was tested. Which Anti-α effect (α-receptors; 10 mg/kg) did it give?
A: Its Anti-α effect is “++ (for a ≥50-reduction of the increase in pressure or cardiac frequency)”.

Q: And the AD50 (mice)?
A: The AD50 was 33 mg/kg.

Q: And the Anti-β effect (β-receptors; 10 mg/kg)?
A: The Anti-β effect was “+ (for a <50%-reduction of the increase in pressure or cardiac frequency)”.

Q: Which Anti-α effect (α-receptors; 2 mg/kg) does the source give for “4,5-Dihydroxymethyl-3-[3-(2,6-dimethyl-phenoxyethylamino)-2-hydroxy-propoxy]-2-methyl-pyridine [G]” here?
A: Its Anti-α effect is “+++”.

Q: What about the “Decrease in arterial pressure” value (anaesthetized dog [2]; 2 mg/kg) of the same compound?
A: The value was “++ (for a lasting reduction of about 30% in arterial pressure)”.

Q: What about the Anti-β effect (β-receptors; 2 mg/kg) of the same compound?
A: The Anti-β effect was “+ (for a <50%-reduction of the increase in pressure or cardiac frequency)”.

Q: With `Cc1ncc(CO)c(CO)c1OCC(O)CNCCOc1ccc(Cl)cc1` (stereo not drawn) [W, 4,5-Dihydroxymethyl-3-[2-hydroxy-3-(4-chloro-phenoxyethylamino)-propoxy]-2-methyl-pyridine] as the compound, how does the Anti-α effect (α-receptors; 10 mg/kg) read?
A: Its Anti-α effect is “++ (for a ≥50-reduction of the increase in pressure or cardiac frequency)”.

Q: And the Anti-β effect (β-receptors; 10 mg/kg)?
A: Its Anti-β effect is “+ (for a <50%-reduction of the increase in pressure or cardiac frequency)”.

Q: With “4,5-Dihydroxymethyl-3-(2-hydroxy-3-phenoxyethylamino-propoxy)-2-methyl-pyridine [C]” as the compound, how does the Anti-α effect (α-receptors; 10 mg/kg) read?
A: Its Anti-α effect is “+++”.

Q: What about the Anti-β effect (β-receptors; 10 mg/kg) of the same compound?
A: The Anti-β effect was “+ (for a <50%-reduction of the increase in pressure or cardiac frequency)”.

Q: Which results are given for “4,5-Dihydroxymethyl-3-[2-hydroxy-3-(2-phenoxy-2-methyl-ethylamino)-propoxy]-2-methyl-pyridine [J]”?
A: Anti-α effect (α-receptors; 10 mg/kg): +++; AD50 (mice): 47 mg/kg

Q: With `Cc1ccc(C(C)C)c(OCCNCC(O)COc2c(C)ncc(CO)c2CO)c1` (stereo not drawn) [L, 4,5-Dihydroxymethyl-3-[2-hydroxy-3-(2-isopropyl-5-methyl-phenoxyethylamino)-propoxy]-2-methyl-pyridine] as the compound, how does the change in vivo at 1 mg/kg (anaesthetized dog [1]; [3]) read?
A: Its change in vivo at 1 mg/kg is 10 to 30%.

Q: What about the change in vivo at 1 mg/kg (anaesthetized dog [1]; [4]) of the same compound?
A: The change in vivo at 1 mg/kg was 10 to 30%.

Q: What about the Anti-α effect (α-receptors; 10 mg/kg) of the same compound?
A: Its Anti-α effect is “+++”.

Q: And the ED50 (mice)?
A: The ED50 was 40 mg/kg.

Q: And the Anti-β effect (β-receptors; 10 mg/kg)?
A: Its Anti-β effect is “++ (for a ≥50-reduction of the increase in pressure or cardiac frequency)”.

Q: `Cc1ncc(CO)c(CO)c1OCC(O)CNCCOc1ccccc1C(C)C` (stereo not drawn) [S, 4,5-Dihydroxymethyl-3-[2-hydroxy-3-(2-isopropyl-phenoxyethylamino)-propoxy]-2-methyl-pyridine] was tested. Which Anti-α effect (α-receptors; 10 mg/kg) did it give?
A: Its Anti-α effect is “+++”.

Q: What about the Anti-β effect (β-receptors; 10 mg/kg) of the same compound?
A: Its Anti-β effect is “++ (for a ≥50-reduction of the increase in pressure or cardiac frequency)”.

Q: What does the source list for `CCCc1ccccc1OCCNCC(O)COc1c(C)ncc(CO)c1CO` (stereo not drawn) [N, 4,5-Dihydroxymethyl-3-[2-hydroxy-3-(2-n-propyl-phenoxyethylamino)-propoxy]-2-methyl-pyridine]?
A: Anti-α effect (α-receptors; 7 mg/kg): +++; ED50 (mice): 42 mg/kg; Anti-β effect (β-receptors; 7 mg/kg): ++ (for a ≥50-reduction of the increase in pressure or cardiac frequency)

Q: For “4,5-Dihydroxymethyl-3-[2-hydroxy-3-(3-methyl-phenoxyethylamino)-propoxy]-2- methyl-pyridine”, which Anti-α effect (α-receptors; 7.5 mg/kg) is on record?
A: The Anti-α effect was “+++”.

Q: And the “Decrease in arterial pressure” value (anaesthetized dog [2]; 10 mg/kg)?
A: The value was “+ (for a short-lived reduction of about 20% in arterial pressure)”.

Q: What about the Anti-β effect (β-receptors; 7.5 mg/kg) of the same compound?
A: The Anti-β effect was “+ (for a <50%-reduction of the increase in pressure or cardiac frequency)”.

Q: Which Anti-α effect (α-receptors; 10 mg/kg) does the source give for `CNC(=O)OCc1cnc(C)c(OCC(O)CNCCOc2ccccc2)c1COC(=O)NC` (stereo not drawn) [R, 4,5-Di-(N-methylcarbamoyloxymethyl)-3-(2-hydroxy-3-phenoxyethylamino-propoxy)-2-methyl-pyridine] here?
A: Its Anti-α effect is “++ (for a ≥50-reduction of the increase in pressure or cardiac frequency)”.

Q: And the Anti-β effect (β-receptors; 10 mg/kg)?
A: Its Anti-β effect is 0.
